# Results taken from patent US20070275968A1, “Substituted Biphenyl Derivative” (priority 2004, published 2007).
row,Structure (SMILES),melting point
1,"COc1ccc(-c2cccc(-c3nc(C(C)C)[nH]c3-c3cccc(C)n3)c2)cc1 [Example 4, 2-[2-Isopropyl-4-(4′-methoxy-1,1′-biphenyl-3-yl)-1H-imidazol-5-yl]-6-methylpyridine]",75 to 77 °C
2,"Cc1cccc(-c2[nH]c(C(C)C)nc2-c2cccc(-c3ccc(C(F)(F)F)cc3)c2)n1 [Example 5, 2-{2-Isopropyl-4-[4′-(trifluoromethyl)-1,1′-biphenyl-3-yl]-1H-imidazol-5-yl}-6-methylpyridine]",91 to 93 °C
3,"Cc1cccc(-c2[nH]c(C(C)C)nc2-c2cccc(-c3ccccc3F)c2)n1 [Example 6, 2-[4-(2′-Fluoro-1,1′-biphenyl-3-yl)-2-isopropyl-1H-imidazol-5-yl]-6-methylpyridine]",153 to 155 °C
4,"Cc1cccc(-c2[nH]c(C(C)C)nc2-c2cccc(-c3ccc(F)cc3F)c2)n1 [Example 9, 2-[4-(2′,4′-Difluoro-1,1′-biphenyl-3-yl)-2-isopropyl-1H-imidazol-5-yl]-6-methylpyridine]",70 to 72 °C
5,"Cc1cccc(-c2[nH]c(C(C)C)nc2-c2cccc(-c3ccc(OC(F)(F)F)cc3)c2)n1 [Example 10, 2-{2-Isopropyl-4-[4′-(trifluoromethoxy)-1,1′-biphenyl-3-yl]-1H-imidazol-5-yl}-6-methylpyridine]",120 to 122 °C
6,"Cc1cccc(-c2[nH]c(C(C)C)nc2-c2cccc(-c3ccc(NS(C)(=O)=O)cc3)c2)n1 [Example 15, N-{3′-[2-Isopropyl-5-(6-methylpyridin-2-yl)-1H-imidazol-4-yl]-1,1′-biphenyl-4-yl}methanesulfonamide]",128 to 130 °C
7,"Cc1cccc(-c2[nH]c(C(C)C)nc2-c2cccc(-c3cccc(S(C)(=O)=O)c3)c2)n1 [Example 18, 2-{2-Isopropyl-4-[3′-(methylsulfonyl)-1,1′-biphenyl-3-yl]-1H-imidazol-5-yl}-6-methylpyridine]",97 to 100 °C
8,"Cc1cccc(-c2[nH]c(C(C)C)nc2-c2cccc(-c3cccc(NS(C)(=O)=O)c3)c2)n1 [Example 19, N-{3′-[2-Isopropyl-5-(6-methylpyridin-2-yl)-1H-imidazol-4-yl]-1,1′-biphenyl-3-yl}methanesulfonamide]",108 to 112 °C
9,"CC(=O)c1ccc(-c2cccc(-c3nc(C(C)C)[nH]c3-c3cccc(C)n3)c2)cc1 [Example 24, 1-{3′-[2-Isopropyl-5-(6-methylpyridin-2-yl)-1H-imidazol-4-yl]-1,1′-biphenyl-4-yl}ethanone]",84 to 87 °C
10,"CCS(=O)(=O)c1ccc(-c2cccc(-c3nc(C(C)C)[nH]c3-c3cccc(C)n3)c2)cc1 [Example 25, 2-{2-Isopropyl-4-[4′-(ethylsulfonyl)-1,1′-biphenyl-3-yl]-1H-imidazol-5-yl}-6-methylpyridine]",103 to 116 °C
11,"Cc1cccc(-c2[nH]c(C(C)C)nc2-c2cccc(-c3ccc([N+](=O)[O-])cc3)c2)n1 [Example 27, 2-[2-Isopropyl-4-(4′-nitro-1,1′-biphenyl-3-yl)-1H-imidazol-5-yl]-6-methylpyridine]",95 to 105 °C
12,"CCS(=O)(=O)Nc1ccc(-c2cccc(-c3nc(C(C)C)[nH]c3-c3cccc(C)n3)c2)cc1 [Example 30, N-{3′-[2-Isopropyl-5-(6-methylpyridin-2-yl)-1H-imidazol-4-yl]-1,1′-biphenyl-4-yl}ethanesulfonamide]",123 to 135 °C
13,"Cc1cccc(-c2[nH]c(C(C)C)nc2-c2cccc(-c3ccc(NS(=O)(=O)C4CC4)cc3)c2)n1 [Example 31, N-{3′-[2-Isopropyl-5-(6-methylpyridin-2-yl)-1H-imidazol-4-yl]-1,1′-biphenyl-4-yl}cyclopropylsulfonamide]",135 to 145 °C
14,"CC(=O)Nc1ccc(-c2cccc(-c3nc(C(C)C)[nH]c3-c3cccc(C)n3)c2)cc1 [Example 32, N-{3′-[2-Isopropyl-5-(6-methylpyridin-2-yl)-1H-imidazol-4-yl]-1,1′-biphenyl-4-yl}acetamide]",140 to 145 °C

# Results, then the compound that gave them:
row,melting point,Structure (SMILES)
1,76 to 79 °C,"Cc1ccc(-c2cccc(-c3nc(C(C)C)[nH]c3-c3cccc(C)n3)c2)cc1 [Example 3, 2-[2-Isopropyl-4-(4′-methyl-1,1′-biphenyl-3-yl)-1H-imidazol-5-yl]-6-methylpyridine]"
2,140 to 142 °C,"Cc1cccc(-c2[nH]c(C(C)C)nc2-c2cccc(-c3cccc(F)c3)c2)n1 [Example 7, 2-[4-(3′-Fluoro-1,1′-biphenyl-3-yl)-2-isopropyl-1H-imidazol-5-yl]-6-methylpyridine]"
3,83 to 85 °C,"Cc1cccc(-c2[nH]c(C(C)C)nc2-c2cccc(-c3ccc(F)cc3)c2)n1 [Example 8, 2-[4-(4′-Fluoro-1,1′-biphenyl-3-yl)-2-isopropyl-1H-imidazol-5-yl]-6-methylpyridine]"
4,74 to 77 °C,"Cc1cccc(-c2[nH]c(C(C)C)nc2-c2cccc(-c3cccnc3)c2)n1 [Example 11, 2-[2-Isopropyl-4-(3-pyridin-3-ylphenyl)-1H-imidazol-5-yl]-6-methylpyridine]"
5,84 to 86 °C,"Cc1cccc(-c2[nH]c(C(C)C)nc2-c2cccc(-c3ccncc3)c2)n1 [Example 12, 2-[2-Isopropyl-4-(3-pyridin-4-ylphenyl)-1H-imidazol-5-yl]-6-methylpyridine]"
6,72 to 74 °C,"COc1ccc(-c2cccc(-c3nc(C(C)C)[nH]c3-c3cccc(C)n3)c2)cn1 [Example 13, 5-{3-[2-Isopropyl-5-(6-methylpyridin-2-yl)-1H-imidazol-4-yl]phenyl}-2-methoxypyridine]"
7,83 to 85 °C,"Cc1cccc(-c2[nH]c(C(C)C)nc2-c2cccc(-c3ccsc3)c2)n1 [Example 14, 2-[2-Isopropyl-4-(3-thien-3-ylphenyl)-1H-imidazol-5-yl]-6-methylpyridine]"
8,80 to 82 °C,"CSc1ccc(-c2cccc(-c3nc(C(C)C)[nH]c3-c3cccc(C)n3)c2)cc1 [Example 16, 2-{2-Isopropyl-4-[4′-(methylthio)-1,1′-biphenyl-3-yl]-1H-imidazol-5-yl}-6-methylpyridine]"
9,73 to 76 °C,"Cc1cccc(-c2[nH]c(C(C)C)nc2-c2cccc(-c3cccs3)c2)n1 [Example 20, 2-[2-Isopropyl-4-(3-thien-2-ylphenyl)-1H-imidazol-5-yl]-6-methylpyridine]"
10,74 to 78 °C,"Cc1cccc(-c2[nH]c(C(C)C)nc2-c2cccc(-c3ccoc3)c2)n1 [Example 21, 2-{4-[3-(3-Furyl)phenyl]-2-isopropyl-1H-imidazol-5-yl}-6-methylpyridine]"
11,103 to 107 °C,"Cc1cccc(-c2[nH]c(C(C)C)nc2-c2cccc(-c3ccc[nH]3)c2)n1 [Example 23, 2-{2-Isopropyl-4-[3-(1H-pyrrol-2-yl)phenyl]-1H-imidazol-5-yl}-6-methylpyridine]"
12,107 to 117 °C,"Cc1cccc(-c2[nH]c(C(C)C)nc2-c2cccc(-c3ccc(N)cc3)c2)n1 [Example 28, 2-[2-Isopropyl-4-(4′-amino-1,1′-biphenyl-3-yl)-1H-imidazol-5-yl]-6-methylpyridine]"
13,113 to 123 °C (dec.),"Cc1cccc(-c2[nH]c(C(C)C)nc2-c2cccc(-c3ccc(CN)cc3)c2)n1 [Example 29, 1-{3′-[2-Isopropyl-5-(6-methylpyridin-2-yl)-1H-imidazol-4-yl]-1,1′-biphenyl-4-yl}methanamine]"
